Legend:
[1] = test system: CML-T1; assay: OncoPanel cell proliferation assay, CML-T1; format: cell-based, human
Procedure: (§1) Cells were grown in RPMI 1640, 10% FBS, 2 mM L-alanyl-L-glutamine, 1 mM Na pyruvate, or a special medium. Cells were seeded into 384-well plates and incubated in a humidified atmosphere of 5% CO2 at 37° C. Compounds were added the day following cell seeding. At the same time, a time zero untreated cell plate was generated. After a 3-day incubation period, cells were fixed and stained to allow fluorescence imaging of nuclei. Compounds (1 mM stock solutions) were serially diluted in half-log steps from the highest test concentration ([…]), and assayed over 10 concentrations with a maximum assay concentration of 0.1% DMSO. Automated fluorescence microscopy was carried out using a Molecular Devices ImageXpress Micro XL high-content imager, and images were collected with a 4× objective. 16-bit TIFF images were acquired and analyzed with MetaXpress 5.1.0.41 software.
(§2) Cell proliferation was measured by the fluorescence intensity of an incorporated nuclear dye. The output is referred to as the relative cell count, where the measured nuclear intensity is transformed to percent of control (POC) using the following formula: […]
(§3) Cellular response parameters were calculated using nonlinear regression to a sigmoidal single-site dose response model:
(§4) EC50 is the test compound concentration at the curve inflection point or half the effective response (parameter C of the fitted curve solution). GI50 is the concentration needed to reduce the observed growth by half (midway between the curve maximum and the time zero value). “Cell Count Activity Area” is an estimate of the integrated area above the curve (Barretina, et al. The Cancer Cell Line Encyclopedia enables predictive modelling of anticancer drug sensitivity. Nature 483: 603-607). […] In rare instances, values <0 or >10 may be observed. […] Curve-fitting, calculations, and report generation was performed using a custom data reduction engine and MathIQ based software (AIM).

[2] = test system: SHP-77; assay: OncoPanel cell proliferation assay, SHP-77
Procedure: (§5) Cells were seeded into 384-well plates and incubated in a humidified atmosphere of 5% CO2 at 37° C. Compounds were added the day following cell seeding. At the same time, a time zero untreated cell plate was generated. After a 3-day incubation period, cells were fixed and stained to allow fluorescence imaging of nuclei. Compounds (1 mM stock solutions) were serially diluted in half-log steps from the highest test concentration (1 micromol), and assayed over 10 concentrations with a maximum assay concentration of 0.1% DMSO. Automated fluorescence microscopy was carried out using a Molecular Devices ImageXpress Micro XL high-content imager, and images were collected with a 4× objective. 16-bit TIFF images were acquired and analyzed with MetaXpress 5.1.0.41 software.

[3] = test system: SW684; assay: OncoPanel cell proliferation assay, SW684; format: cell-based, human
Procedure: as §1, with “Cells” for “Cells were grown in RPMI 1640, 10% FBS, 2 mM L-alanyl-L-glutamine, 1 mM Na pyruvate, or a special medium. Cells”
as §2, §3
GI50 is the concentration needed to reduce the observed growth by half (midway between the curve maximum and the time zero value). […] In rare instances, values <0 or >10 may be observed. […] Curve-fitting, calculations, and report generation was performed using a custom data reduction engine and MathIQ based software (AIM).

[4] = test system: CHP-212; assay: OncoPanel cell proliferation assay, CHP-212
Procedure: as §5

[5] = test system: T24; assay: OncoPanel cell proliferation assay, T24; format: cell-based, human
Procedure: as §1, §2, §3, §4

[6] = test system: Hs 729; assay: OncoPanel cell proliferation assay, Hs 729; format: cell-based, human
Procedure: as §1, §2, §3, §4

[7] = test system: SCaBER; assay: OncoPanel cell proliferation assay, SCaBER; format: cell-based, human
Procedure: as §1, §2, §3, §4

[8] = Homo sapiens, read-out: Cell Count EC50
[9] = Homo sapiens, read-out: Cell Count GI50
[10] = Homo sapiens, read-out: Cell Count IC50

CO[C@H]1C[C@@H]2CC[C@@H](C)[C@@](O)(O2)C(=O)C(=O)N2CCCC[C@H]2C(=O)O[C@H]([C@H](C)C[C@H]2C[C@H]3C[C@@H]2C[C@@H]3O)CC(=O)[C@H](C)/C=C(\C)[C@@H](O)[C@@H](OC)C(=O)[C@H](C)C[C@H](C)/C=C/C=C/C=C/1C [Formula II, C37-[(1R,2S,4R,5S)-5-hyhroxybicyclo[2.2.1]heptane] rapamycin]
Cell Count Activity Area [1]: 3.68 | Relative cell count (%) Mean ([1]; 1.00E+00 microM): 44.0% | Relative cell count (%) Mean ([1]; 1.00E-01 microM): 46.4% | Relative cell count (%) Mean ([1]; 1.00E-02 microM): 54.5% | Relative cell count (%) Mean ([1]; 1.00E-03 microM): 67.7% | Relative cell count (%) Mean ([1]; 1.01E-04 microM): 96.1% | Relative cell count (%) Mean ([1]; 3.16E-01 microM): 42.4% | Relative cell count (%) Mean ([1]; 3.17E-02 microM): 46.2% | Relative cell count (%) Mean ([1]; 3.17E-03 microM): 59.5% | Relative cell count (%) Mean ([1]; 3.18E-04 microM): 78.8% | Relative cell count (%) Mean ([1]; 3.18E-05 microM): 96.6% | EC50 [1, 8]: 0.821 nM | GI50 [1, 9]: 3.64 nM | IC50 [1, 10]: 12.5 nM | EC50 ([2]; Homo sapiens, SHP77, read-out: Cell Count EC50): > 1000 nM | GI50 ([2]; Homo sapiens, SHP77, read-out: Cell Count GI50): > 1000 nM | IC50 ([2]; Homo sapiens, SHP77, read-out: Cell Count IC50): > 1000 nM | Cell Count Activity Area ([2]; SHP-77): 0.76 | Relative cell count (%) Mean ([2]; SHP-77, 1.00E+00 microM): 67.9% | Relative cell count (%) Mean ([2]; SHP-77, 1.00E-01 microM): 79.9% | Relative cell count (%) Mean ([2]; SHP-77, 1.00E-02 microM): 96.8% | Relative cell count (%) Mean ([2]; SHP-77, 1.00E-03 microM): 96.1% | Relative cell count (%) Mean ([2]; SHP-77, 1.01E-04 microM): 95.8% | Relative cell count (%) Mean ([2]; SHP-77, 3.16E-01 microM): 75.2% | Relative cell count (%) Mean ([2]; SHP-77, 3.17E-02 microM): 88.0% | Relative cell count (%) Mean ([2]; SHP-77, 3.17E-03 microM): 92.3% | Relative cell count (%) Mean ([2]; SHP-77, 3.18E-04 microM): 90.6% | Relative cell count (%) Mean ([2]; SHP-77, 3.18E-05 microM): 98.5% | Cell Count Activity Area [3]: 2.97 | Relative cell count (%) Mean ([3]; 1.00E+00 microM): 49.0% | Relative cell count (%) Mean ([3]; 1.00E-01 microM): 55.6% | Relative cell count (%) Mean ([3]; 1.00E-02 microM): 71.4% | Relative cell count (%) Mean ([3]; 1.00E-03 microM): 85.1% | Relative cell count (%) Mean ([3]; 1.01E-04 microM): 94.1% | Relative cell count (%) Mean ([3]; 3.16E-01 microM): 52.4% | Relative cell count (%) Mean ([3]; 3.17E-02 microM): 63.3% | Relative cell count (%) Mean ([3]; 3.17E-03 microM): 71.8% | Relative cell count (%) Mean ([3]; 3.18E-04 microM): 86.4% | Relative cell count (%) Mean ([3]; 3.18E-05 microM): 99.5% | EC50 [3, 8]: 4.57 nM | GI50 [3, 9]: 2.19 nM | IC50 [3, 10]: 370 nM | Cell Count Activity Area ([4]; CHP-212): 3.87 | Relative cell count (%) Mean ([4]; CHP-212, 1.00E+00 microM): 43.7% | Relative cell count (%) Mean ([4]; CHP-212, 1.00E-01 microM): 47.0% | Relative cell count (%) Mean ([4]; CHP-212, 1.00E-02 microM): 57.6% | Relative cell count (%) Mean ([4]; CHP-212, 1.00E-03 microM): 59.5% | Relative cell count (%) Mean ([4]; CHP-212, 1.01E-04 microM): 82.6% | Relative cell count (%) Mean ([4]; CHP-212, 3.16E-01 microM): 46.9% | Relative cell count (%) Mean ([4]; CHP-212, 3.17E-02 microM): 54.5% | Relative cell count (%) Mean ([4]; CHP-212, 3.17E-03 microM): 59.2% | Relative cell count (%) Mean ([4]; CHP-212, 3.18E-04 microM): 68.8% | Relative cell count (%) Mean ([4]; CHP-212, 3.18E-05 microM): 93.4% | EC50 ([4]; Homo sapiens, CHP-212, read-out: Cell Count EC50): 0.267 nM | GI50 ([4]; Homo sapiens, CHP-212, read-out: Cell Count GI50): 0.349 nM | IC50 ([4]; Homo sapiens, CHP-212, read-out: Cell Count IC50): 34 nM | Cell Count Activity Area [5]: 4.16 | Relative cell count (%) Mean ([5]; 1.00E+00 microM): 36.6% | Relative cell count (%) Mean ([5]; 1.00E-01 microM): 42.2% | Relative cell count (%) Mean ([5]; 1.00E-02 microM): 52.8% | Relative cell count (%) Mean ([5]; 1.00E-03 microM): 61.8% | Relative cell count (%) Mean ([5]; 1.01E-04 microM): 85.7% | Relative cell count (%) Mean ([5]; 3.16E-01 microM): 40.8% | Relative cell count (%) Mean ([5]; 3.17E-02 microM): 48.5% | Relative cell count (%) Mean ([5]; 3.17E-03 microM): 52.6% | Relative cell count (%) Mean ([5]; 3.18E-04 microM): 69.8% | Relative cell count (%) Mean ([5]; 3.18E-05 microM): 93.2% | EC50 ([5]; Homo sapiens, T-24, read-out: Cell Count EC50): 0.471 nM | GI50 ([5]; Homo sapiens, T-24, read-out: Cell Count GI50): 3.09 nM | IC50 ([5]; Homo sapiens, T-24, read-out: Cell Count IC50): 6.8 nM | Cell Count Activity Area [6]: 0.91 | Relative cell count (%) Mean ([6]; 1.00E+00 microM): 73.3% | Relative cell count (%) Mean ([6]; 1.00E-01 microM): 81.0% | Relative cell count (%) Mean ([6]; 1.00E-02 microM): 91.1% | Relative cell count (%) Mean ([6]; 1.00E-03 microM): 97.1% | Relative cell count (%) Mean ([6]; 1.01E-04 microM): 105.0% | Relative cell count (%) Mean ([6]; 3.16E-01 microM): 74.8% | Relative cell count (%) Mean ([6]; 3.17E-02 microM): 79.3% | Relative cell count (%) Mean ([6]; 3.17E-03 microM): 98.0% | Relative cell count (%) Mean ([6]; 3.18E-04 microM): 93.3% | Relative cell count (%) Mean ([6]; 3.18E-05 microM): 93.2% | EC50 [6, 8]: > 1000 nM | GI50 [6, 9]: 101 nM | IC50 [6, 10]: > 1000 nM | Cell Count Activity Area [7]: 4.82

Reference: patent US20200131196A1 (Mount Tam Therapeutics, Inc., priority 2017, published 2020)
